From patent publication US10669258B2, “3-sulfonyl-5-aminopyridine-2,4-diol APJ agonists” (BRISTOL-MYERS SQUIBB COMPANY, priority 2016, dated 2020) come the findings set out here.

In the first test the target is T1, human APJ receptor (Homo sapiens, UniProt P35414).
T1 construct: expressed in transfected cells; host or cells: HEK293
T1 sequence (P35414 1-380): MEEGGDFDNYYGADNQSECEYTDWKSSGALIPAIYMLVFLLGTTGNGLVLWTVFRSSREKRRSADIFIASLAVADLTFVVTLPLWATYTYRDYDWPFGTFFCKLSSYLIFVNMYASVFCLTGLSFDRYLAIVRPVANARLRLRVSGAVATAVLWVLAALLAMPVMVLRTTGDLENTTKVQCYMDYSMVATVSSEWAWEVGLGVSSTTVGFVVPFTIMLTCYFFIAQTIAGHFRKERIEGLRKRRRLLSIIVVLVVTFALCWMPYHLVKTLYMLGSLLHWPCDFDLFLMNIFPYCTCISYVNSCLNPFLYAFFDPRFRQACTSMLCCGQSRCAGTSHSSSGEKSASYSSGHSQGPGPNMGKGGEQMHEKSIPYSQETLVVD
Put plainly: Intracellular cAMP accumulation assay (APJ hcAMP, HTRF). It counts as cell-based. The note with it: HEK293 cells stably expressing human APJ receptor; inhibition of forskolin-mediated cAMP production; Table 1; read-out: hAPJ cAMP EC50 Potency range. In short, it runs like this: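 HEK293 cells stably expressing the receptor (5,000/well) treated with compound plus […] and 2 μM forskolin for 30 min at room temperature; cAMP by HTRF against a cAMP standard curve. EC50 from variable-slope sigmoidal fit; Ymax as % of (Pyr1)apelin-13 inhibition.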
`CCCCc1nc(O)c(S(=O)(=O)c2ccc(-c3ccnc(F)c3C)cc2)c(O)c1N(C)c1ccccc1F` [Example 125, 6-butyl-3-((4-(2-fluoro-3-methylpyridin-4-yl)phenyl)sulfonyl)-5-((2-fluorophenyl)(methyl)amino)pyridine-2,4-diol]: the EC50 is 0.01 to 10 nM.
With `CC(C)N(c1ccccc1)c1c(-c2ccn(C)n2)nc(O)c(S(=O)(=O)c2ccc(-c3ccc(F)cc3C(N)=O)cc2)c1O` [Example 161, 4′-((2,4-dihydroxy-5-(isopropyl(phenyl)amino)-6-(1-methyl-1H-pyrazol-3-yl)pyridin-3-yl)sulfonyl)-4-fluoro-[1,1′-biphenyl]-2-carboxamide], the EC50 lay within 0.01 to 10 nM.
For the molecule `CCN(c1ccccc1)c1c(CC2CC2)nc(O)c(S(=O)(=O)c2ccc(-c3ccncc3C)cc2)c1O` [Example 052, 6-(cyclopropylmethyl)-5-(ethyl(phenyl)amino)-3-((4-(3-methylpyridin-4-yl)phenyl)sulfonyl)pyridine-2,4-diol], the EC50 fell in the range of 0.01 to 10 nM.
Regarding `CCCCc1nc(O)c(S(=O)(=O)c2ccc(-c3ccncc3C)cc2)c(O)c1N(C)c1ccc(Cl)cc1` [Example 108, 6-butyl-5-((4-chlorophenyl)(methyl)amino)-3-((4-(3-methylpyridin-4-yl)phenyl)sulfonyl)pyridine-2,4-diol], the EC50 fell in the range of 0.01 to 10 nM.
Take `CCCCc1nc(O)c(S(=O)(=O)c2ccc(-c3ccncc3C)cc2)c(O)c1N(C)c1ccccc1` [Example 014, 6-butyl-5-(methyl(phenyl)amino)-3-((4-(3-methylpyridin-4-yl)phenyl)sulfonyl)pyridine-2,4-diol]: the EC50 was in the range of 0.01 to 10 nM.
As for `CCCCc1nc(O)c(S(=O)(=O)c2ccc(-c3ccncc3C)cc2)c(O)c1N1CCCOc2ccccc21` [Example 129, 6-butyl-5-(3,4-dihydrobenzo[b][1,4]oxazepin-5(2H)-yl)-3-((4-(3-methylpyridin-4-yl)phenyl)sulfonyl)pyridine-2,4-diol], the EC50 was 0.01 to 10 nM.
As to `CCCCc1nc(O)c(S(=O)(=O)c2ccc(-c3ccccc3C(=O)N(C)C)cc2)c(O)c1N(C)c1cccc(C#N)c1` [Example 139, 4′-((6-butyl-5-((3-cyanophenyl)(methyl)amino)-2,4-dihydroxypyridin-3-yl)sulfonyl)-N,N-dimethyl-[1,1′-biphenyl]-2-carboxamide], the EC50 is 0.01 to 10 nM.
`CCN(c1ccccc1)c1c(-c2cnc(C)s2)nc(O)c(S(=O)(=O)c2ccc(-c3ccnc(F)c3C)cc2)c1O` [Example 191, 5-(ethyl(phenyl)amino)-3-((4-(2-fluoro-3-methylpyridin-4-yl)phenyl)sulfonyl)-6-(2-methylthiazol-5-yl)pyridine-2,4-diol]: the EC50 was 0.01 to 10 nM.
Turning to `CCCCc1nc(O)c(S(=O)(=O)c2ccc(-c3ccc(F)nc3C)cc2)c(O)c1N(C)c1cccc(C)c1` [Example 095, 6-butyl-3-((4-(6-fluoro-2-methylpyridin-3-yl)phenyl)sulfonyl)-5-(methyl(m-tolyl)amino)pyridine-2,4-diol], the EC50 was 10 to 100 nM.
Same read-out and setting: the figure for `CCCCc1nc(O)c(S(=O)(=O)c2ccc(-c3ccccc3C(=O)N(C)C)cc2)c(O)c1N(CC)c1cc(C)cc(C)c1` [Example 140, 4′-((6-butyl-5-((3,5-dimethylphenyl)(ethyl)amino)-2,4-dihydroxypyridin-3-yl)sulfonyl)-N,N-dimethyl-[1,1′-biphenyl]-2-carboxamide] is 0.01 to 10 nM.
With `CCCCc1nc(O)c(S(=O)(=O)c2ccccc2)c(O)c1N(CC)c1ccccc1` [Example 084, 6-butyl-5-(ethyl(phenyl)amino)-3-(phenylsulfonyl)pyridine-2,4-diol], the EC50 was 10 to 100 nM.
Regarding `CCCCc1nc(O)c(S(=O)(=O)c2ccc(-c3ccccc3C(=O)N(C)C)cc2)c(O)c1N1CCCCc2ccccc21` [Example 179, 4′-((6-butyl-2,4-dihydroxy-5-(2,3,4,5-tetrahydro-1H-benzo[b]azepin-1-yl)pyridin-3-yl)sulfonyl)-N,N-dimethyl-[1,1′-biphenyl]-2-carboxamide], the EC50 is 10 to 100 nM.
Take `CCCCc1nc(O)c(S(=O)(=O)c2ccc(-c3cccnc3C)cc2)c(O)c1N(c1ccccc1)C(C)C` [Example 025, 6-butyl-5-(isopropyl(phenyl)amino)-3-((4-(2-methylpyridin-3-yl)phenyl)sulfonyl)pyridine-2,4-diol]: the EC50 was 0.01 to 10 nM.
Turning to `CCCCc1nc(O)c(S(=O)(=O)c2ccc(-c3cccnc3C)cc2)c(O)c1N1CCCCc2ccccc21` [Example 173, 6-butyl-3-((4-(2-methylpyridin-3-yl)phenyl)sulfonyl)-5-(2,3,4,5-tetrahydro-1H-benzo[b]azepin-1-yl)pyridine-2,4-diol], the EC50 is 10 to 100 nM.
As for `CCCCc1nc(O)c(S(=O)(=O)c2ccc(-c3ccnc(OC)c3)cc2)c(O)c1N(CC)c1ccccc1` [Example 081, 6-butyl-5-(ethyl(phenyl)amino)-3-((4-(2-methoxypyridin-4-yl)phenyl)sulfonyl)pyridine-2,4-diol], the EC50 was 0.01 to 10 nM.
Regarding `CCN(c1cccc(C#N)c1)c1c(-c2ccn(C)n2)nc(O)c(S(=O)(=O)c2ccc(-c3ccccc3C(=O)NC3CC3)cc2)c1O` [Example 218, 4′-((5-((3-cyanophenyl)(ethyl)ami-no)-2,4-dihydroxy-6-(1-methyl-1H-pyrazol-3-yl)pyridin-3-y)sulfonyl)-N-cyclopropyl-[1,1′-biphenyl]-2-carboxamide], the EC50 was in the range of 0.01 to 10 nM.
`CCCCc1nc(O)c(S(=O)(=O)c2ccc(-c3ccnc(F)c3C)cc2)c(O)c1N1CCCCC1c1ccccc1` (stereo not drawn) [Example 128, 6-butyl-3-((4-(2-fluoro-3-methylpyridin-4-yl)phenyl)sulfonyl)-5-(2-phenylpiperidin-1-yl)pyridine-2,4-diol]: the EC50 lay within 10 to 100 nM.

Still in this test, the particulars now being: HEK293 cells stably expressing human APJ receptor; inhibition of forskolin-mediated cAMP production; Table 2; read-out: hAPJ cAMP EC50 Potency range.
Regarding `CC(C)N(c1ccccc1)c1c(-c2ccn(C)n2)nc(O)c(C(=O)N2CCC(c3ccc(F)cc3F)C2)c1O` (stereo not drawn) [Example 209, (3-(2,4-difluorophenyl)pyrrolidin-1-yl)(2,4-dihydroxy-5-(isopropyl(phenyl)amino)-6-(1-methyl-1H-pyrazol-3-yl)pyridin-3-yl)methanone], the EC50 is 0.01 to 10 nM.
As for `CCN(c1ccccc1)c1c(-c2ccn(C)n2)nc(O)c(C(=O)N2CCC(c3ccc(F)cc3F)C2)c1O` (stereo not drawn) [Example 201, (3-(2,4-difluorophenyl)pyrrolidin-1-yl)(5-(ethyl(phenyl)amino)-2,4-dihydroxy-6-(1-methyl-1H-pyrazol-3-yl)pyridin-3-yl)methanone], the EC50 was 0.01 to 10 nM.

Staying with this test, now noted: HEK293 cells stably expressing human APJ receptor; inhibition of forskolin-mediated cAMP production; read-out: Human APJ cAMP Potency range.
Regarding `CCN(c1ccccc1)c1c(-c2ccn(C)n2)nc(O)c(C(=O)N2CCC(c3ccc(Cl)cn3)C2)c1O` (single isomer, unassigned) [Example 199, (3-(5-chloropyridin-2-yl)pyrrolidin-1-yl)(5-(ethyl(phenyl)amino)-2,4-dihydroxy-6-(1-methyl-1H-pyrazol-3-yl)pyridin-3-yl)methanone], the EC50 was in the range of 0.01 to 10 nM.

The test is the same for the next values; noted with them: hAPJ cAMP EC50 Potency range, HEK293 cells stably expressing human APJ receptor; inhibition of forskolin-mediated cAMP production; Table 1.
Consider `CCCCc1nc(O)c(C(=O)N2CCN(Cc3cccc(Cl)c3Cl)CC2)c(O)c1N(CC)c1ccccc1` [Example 074, (6-butyl-5-(ethyl(phenyl)amino)-2,4-dihydroxypyridin-3-yl)(4-(2,3-dichlorobenzyl)piperazin-1-yl)methanone], for which the EC50 was 10 to 100 nM.
